Entries after “also recorded” stand apart in the source; their conditions may differ.
Columns and labels:
[1] = tested on: reinforcing effects of methamphetamine; conditions: rat self-administration model; Munzar et al., 2004; cited from earlier work
[2] = tested on: cocaine self-administration; experiment: Same protocol with lever pressing rewarded with drug during the second hour (resumption of self-administration); assay type: in vivo, rat
Description: In order to differentiate the drug seeking from the reward phenomenon, the same protocol as described above was used, with the proviso that the pressing of the lever was rewarded with drug during the second hour. In the control experiments, when the rats were treated with saline solution, a relatively stable pressing of the lever over the course of time was observed (FIG. 3).
These same rats, days afterwards, were subjected in random order to treatment with saline solution or imetit in doses of 10 mg/kg. After these treatments, the rats recovered stability by means of three sessions of self-administration of drug. […] This decrease was significant for the first 40 minutes of the self-administration period, as compared to the control rats that were pretreated with a saline solution. Thus, over the course of time, the desire for the drug reappeared.

[3] = tested on: cocaine craving; experiment: Extinction phase: cocaine craving (lever pressing with drug no longer available); assay type: in vivo, rat
Text: II. Extinction Phase: In this phase, the drug ceases to be available to the rats. During the extinction session, the animal learns, suddenly, that the drug can no longer be obtained by pressing the lever, which directs the rat toward an initial impulse of drug seeking. During the extinction session, one estimates the degree of the irrepressible desire of the rat for the drug (craving). After repeated extinction sessions, animals learn to reduce lever pressing and are ready for relapse testing.
Training was conducted in Skinner cages. Rats were trained to tap a lever to obtain saccharose. […] Once the training to obtain saccharose was complete, the rats had access to food ad libitum during the rest of the procedure. An intravenous catheter was subsequently implanted in the jugular vein. The catheter passed underneath the skin to reach the shoulder of the animal, where it was secured with a surgical gauze.
After 3-4 days of recovery, the animals were subjected, in the Skinner cages, to daily sessions of intravenous self-administration of 0.5 mg/kg doses of cocaine each time that they pressed an active lever. […] When this second lever was pressed by the animal, no drug was administered. The self-administration sessions lasted for 2 hours a day, 5 days a week, for at least six weeks.
The third self-administration protocol required the animals to press the lever five times to obtain the cocaine reinforcement.
Rats that succeeded in learning to self-administer the drug according to all three protocols described above were selected to test out the efficiency of the treatment with H3 histaminergic agonists in the extinction and relapse phases.
Drug craving, in this particular case cocaine craving, associated with the unexpected commencement of the extinction phase was studied once the animals had been self-administering the drug daily for at least six weeks.
The experiments began with the self-administration of cocaine for one hour. After this initial self-administration, the rats were divided into two groups. […]

[4] = tested on: relapse into cocaine seeking; experiment: Relapse phase: rehabilitation test, relapse induced by a single dose of cocaine; assay type: in vivo, rat; conditions: rats
Text: III. Relapse Phase: The relapse phase is studied by using a rehabilitation test. In this phase, the desire of the rats for the drug is again induced by the administration of a single dose of drug. At this instant, the rat again feels the desire to obtain the drug, and so it again begins to press on the lever to obtain the drug, but the drug is not available to the animal.
The behavior of the rats was also studied during the relapse phase, after the animals had gone through the extinction phase. In the extinction phase, the animals received no reward (dose of cocaine) when they pressed the lever. After a minimum of six extinction sessions, lasting 2 hours each session, carried out on consecutive days, the lever-pressing behavior of the rats diminished at least 20 times in comparison to the start of the extinction sessions.
When the number of times that the rats pressed the lever decreased, the animals were subjected to 4 hour rehabilitation sessions (i.e., relapse sessions). These rehabilitation sessions consisted initially of extinction sessions of 3 hours, followed by the automatic release, by an injection, of a saline solution or different doses of cocaine. During the fourth hour, the behavior of the animals was studied in regard to the number of times that they pressed the lever after the administration of the different doses of cocaine (0 mg/kg, 0.5 mg/kg and 2 mg/kg). The number of times that the lever was pressed increased in proportion to the dose of cocaine administered (cocaine at 0.5 mg/kg or 2 mg/kg administered intravenously, or saline in controls) (FIG. 8). However, this increase in the number of times that the animals pressed the lever was not rewarded with the administration of more cocaine. The number of times that the rats pressed the lever was indicative of the rat's need to find the drug. Even so, the pressing of the lever was not rewarded with more cocaine, which differentiates this stage from that corresponding to self-administration. […]

[5] = tested on: reinforcement produced by cocaine; experiment: Reinforcement phase: cocaine self-administration dose/response; assay type: in vivo, rat; conditions: rats

SMILES	reinforcing effects of methamphetamine [1]	latency (time until first lever press) on resumption of self-administration ([2]; imetit 10 mg/kg i.v. pretreatment, vs control, rats)	decrease in number of times the rats tapped the lever during the start of the self-administration phase ([2]; imetit 10 mg/kg pretreatment, vs saline)	period of the self-administration phase over which the decrease in lever tapping was significant ([2]; imetit 10 mg/kg pretreatment, vs saline, rats)	tapping of the lever in the first 20 minutes of extinction ([3]; imetit 3 mg/kg i.v. single dose, vs control rats)	latency (time until the rats pressed the lever for the first time) at start of extinction ([3]; imetit 10 mg/kg i.v. single dose, vs control)	impulsiveness in tapping the lever to obtain reward in the first 20 minutes of extinction ([3]; imetit 10 mg/kg i.v. single dose, vs control rats)	lever pressing after relapse induced by a single dose of cocaine ([4]; imetit 3 mg/kg one hour before, cocaine 0.5 mg/kg, vs saline)	tendency to seek cocaine (self-injections in 2 hours) ([5]; imetit 3 mg/kg single dose one hour before reinforcement, even at 0.03 mg/kg cocaine)	lever pressing after relapse induced by a reminder dose of cocaine ([4]; thioperamide 3 mg/kg s.c. or 6 mg/kg, one hour before, cocaine 0.5 or 2 mg/kg)	reinforcement produced by cocaine (self-injections in 2 hours) ([5]; thioperamide 3 mg/kg s.c. one hour before, cocaine 0-1.0 mg/kg per injection)
NC(=NCc1ccc(Cl)cc1)SCCCc1cnc[nH]1 [clobenpropit]	potentiate the reinforcing effects	–	–	–	–	–	–	–	–	–	–
N=C(N)SCCc1cnc[nH]1 [imetit]	–	significantly increased	approximately 50%	40 min	did not cause a significant reduction	significantly increased; also recorded: increase in latency	significantly diminished	caused a decrease in the pressing on the lever; also recorded: diminished significantly	diminished the tendency to seek cocaine; also recorded: self-administer less cocaine	–	–
S=C(NC1CCCCC1)N1CCC(c2cnc[nH]2)CC1 [thioperamide]	potentiate the reinforcing effects	–	–	–	–	–	–	–	–	did not potentiate the rehabilitation; also recorded: does not produce a significant decline	no significant increase
